Where “and” joins values, the source holds several entries; their conditions need not be identical. Equal entries are not always repeated. Where two headings read alike, the source gives them in different places.
Biological target: T1, M2R (Homo sapiens, UniProt P08172)
T1 sequence (P08172 1-466): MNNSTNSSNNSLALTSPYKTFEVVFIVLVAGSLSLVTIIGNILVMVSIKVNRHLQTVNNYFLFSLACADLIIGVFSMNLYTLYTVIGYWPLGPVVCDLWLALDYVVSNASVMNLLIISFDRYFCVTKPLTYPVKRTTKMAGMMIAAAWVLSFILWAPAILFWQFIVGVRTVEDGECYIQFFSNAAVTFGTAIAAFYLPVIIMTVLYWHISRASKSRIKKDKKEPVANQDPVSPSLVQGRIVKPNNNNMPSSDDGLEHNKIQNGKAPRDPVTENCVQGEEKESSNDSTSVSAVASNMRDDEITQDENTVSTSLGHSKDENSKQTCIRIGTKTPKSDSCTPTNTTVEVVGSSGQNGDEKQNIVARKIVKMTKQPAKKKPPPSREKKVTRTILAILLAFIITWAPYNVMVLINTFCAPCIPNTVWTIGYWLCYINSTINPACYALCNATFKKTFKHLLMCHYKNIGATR
Assay: cell-based
Design: expressed in transfected cells; host or cells: HEK 293T
Conditions: for Emax: HEK-293T
Experimental: Determination of β-arrestin-2 recruitment was performed applying the PathHunter assay (DiscoverX, Birmingham, U.K.) which is based on fragment complementation of β-galactosidase as described. In detail, HEK293T cells were transfected with the flag-tagged M2 receptor carrying the PKA fragment for enzyme complementation and transferred into 384-well micro plates. […] Determination of chemoluminescence was done with a Clariostar plate reader (BMG, Ortenberg, Germany). […] Normalized curves from three to five individual experiments each done in duplicate were analyzed by non-linear regression applying the algorithms in Prism 8.0 (GraphPad, San Diego, CA) to get dose-response curves representing average EC50 and Emax value.

SMILES: C[N+](C)(C)CC#CCOC1=NOCC1 [Ixo, iperoxo]
- EC50: 0.35 ± 0.08 nM
- Emax (read-out: Emax in % of acetylcholin, arrestin recruitment by iperoxo, agonist + 0.1 µM LY): 168%
- Emax (read-out: Emax in % of acetylcholin, arrestin recruitment by iperoxo, agonist + 3 µM LY): 172%
- Emax (read-out: Emax in % of acetylcholin, arrestin recruitment by iperoxo, agonist + 30 µM LY): 170%
- Emax (read-out: Emax in % of acetylcholin, arrestin recruitment by iperoxo, agonist + 100 µM LY): 170%
- Emax (read-out: arrestin recruitment as % max effect of acetylcholin, iperoxo log [M] 3-6): 135%
- Emax (read-out: arrestin recruitment as % max effect of acetylcholin, iperoxo log [M] 3-7): 142%
- Emax (read-out: arrestin recruitment as % max effect of acetylcholin, iperoxo log [M] 3-8): 138%
- Emax (read-out: arrestin recruitment as % max effect of acetylcholin, iperoxo log [M] 3-8 + 1µM LY2119620): 150%
- Emax (read-out: arrestin recruitment as % max effect of acetylcholin, iperoxo log [M] 3-8 + 10µM LY2119620): 154%
- Emax (read-out: arrestin recruitment as % max effect of acetylcholin, iperoxo log [M] 3-8 + 30µM LY2119620): 168%
- Emax (read-out: arrestin recruitment as % max effect of acetylcholin, iperoxo log [M] 3-8 + 100µM LY2119620): 160%
- Emax (read-out: arrestin recruitment as % max effect of acetylcholin, iperoxo log [M] 3-9 + 0.1µM LY2119620): 160%
- Emax (read-out: arrestin recruitment as % max effect of acetylcholin, iperoxo log [M] 3-9 + 3µM LY2119620): 166%
- Emax (read-out: arrestin recruitment as % max effect of acetylcholin, iperoxo log [M] 3-9 + 30µM LY2119620): 175%
- Emax (read-out: arrestin recruitment as % max effect of acetylcholin, iperoxo log [M] 3-9 + 100µM LY2119620): 159%
- Emax (read-out: arrestin recruitment as % max effect of acetylcholin, iperoxo log [M] 3-10 + 30µM LY2119620): 141%
- Emax (read-out: arrestin recruitment as % max effect of acetylcholin, iperoxo log [M] 3-10 + 100µM LY2119620): 125%
- Emax (read-out: arrestin recruitment as % max effect of acetylcholin, iperoxo log [M] 3-11 + 0.1µM LY2119620): 19.4%
- Emax (read-out: arrestin recruitment as % max effect of acetylcholin, iperoxo log [M] 3-11 + 1µM LY2119620): 30.8%
- Emax (read-out: arrestin recruitment as % max effect of acetylcholin, iperoxo log [M] 3-11 + 3µM LY2119620): 72.1%
- Emax (read-out: arrestin recruitment as % max effect of acetylcholin, iperoxo log [M] 3-11 + 10µM LY2119620): 77.5%
- Emax (read-out: arrestin recruitment as % max effect of acetylcholin, iperoxo log [M] 3-11 + 100µM LY2119620): 58.2%
- Emax (read-out: arrestin recruitment as % max effect of acetylcholin, iperoxo log [M] -5): 152%
- Emax (read-out: arrestin recruitment as % max effect of acetylcholin, iperoxo log [M] -6 + 0.1µM LY2119620): 163%
- Emax (read-out: arrestin recruitment as % max effect of acetylcholin, iperoxo log [M] -6 + 1µM LY2119620): 142%
- Emax (read-out: arrestin recruitment as % max effect of acetylcholin, iperoxo log [M] -6 + 3µM LY2119620): 170%
- Emax (read-out: arrestin recruitment as % max effect of acetylcholin, iperoxo log [M] -6 + 10µM LY2119620): 155%
- Emax (read-out: arrestin recruitment as % max effect of acetylcholin, iperoxo log [M] -6 + 30µM LY2119620): 180%
- Emax (read-out: arrestin recruitment as % max effect of acetylcholin, iperoxo log [M] -6 + 100µM LY2119620): 166%
- Emax (read-out: arrestin recruitment as % max effect of acetylcholin, iperoxo log [M] -7 + 30µM LY2119620): 168%
- Emax (read-out: arrestin recruitment as % max effect of acetylcholin, iperoxo log [M] -7 + 100µM LY2119620): 161%
- Emax (read-out: arrestin recruitment as % max effect of acetylcholin, iperoxo log [M] -8 + 0.1µM LY2119620): 162%
- Emax (read-out: arrestin recruitment as % max effect of acetylcholin, iperoxo log [M] -8 + 3µM LY2119620): 149%
- Emax (read-out: arrestin recruitment as % max effect of acetylcholin, iperoxo log [M] -8 + 30µM LY2119620): 176%
- Emax (read-out: arrestin recruitment as % max effect of acetylcholin, iperoxo log [M] -8 + 100µM LY2119620): 160%
- Emax (read-out: arrestin recruitment as % max effect of acetylcholin, iperoxo log [M] -10 + 3µM LY2119620): 105%
- Emax (read-out: arrestin recruitment as % max effect of acetylcholin, iperoxo log [M] -10 + 100µM LY2119620): 89%
- Emax (read-out: arrestin recruitment as % max effect of acetylcholin, iperoxo log [M] -11 + 3µM LY2119620): 44.6%
- Emax (read-out: arrestin recruitment as % max effect of acetylcholin, iperoxo log [M] -11 + 30µM LY2119620): 75.7%
- Emax (read-out: arrestin recruitment as % max effect of acetylcholin, iperoxo log [M] -11 + 100µM LY2119620): 58.6%
- Emax (read-out: arrestin recruitment as % max effect of acetylcholin, iperoxo log [M] -12 + 3µM LY2119620): 37.8%
- Emax (read-out: arrestin recruitment as % max effect of acetylcholin, iperoxo log [M] -12 + 100µM LY2119620): 62.6%
- Emax (read-out: arrestin recruitment as % max effect of acetylcholin, iperoxo log [M] -13 + 3µM LY2119620): 33%
- Emax (read-out: arrestin recruitment as % max effect of acetylcholin, iperoxo log [M] -13 + 10µM LY2119620): 26.7%
- Emax (read-out: arrestin recruitment as % max effect of acetylcholin, iperoxo log [M] -13 + 30µM LY2119620): 59.3%
- Emax (read-out: arrestin recruitment as % max effect of acetylcholin, iperoxo log [M] -13 + 100µM LY2119620): 44.2%
- Emax (read-out: enhancement of efficacy (Emax) in β-arrestin recruitment, presence of high concentration of LY2119620): ~15%
- arrestin recruitment as % max effect of acetylcholin (iperoxo log [M] 3-9): 135.8% and 120.8% and 147.9% and 130.1%
- arrestin recruitment as % max effect of acetylcholin (iperoxo log [M] 3-9 + 0.1µM LY2119620): 156.9%
- arrestin recruitment as % max effect of acetylcholin (iperoxo log [M] 3-9 + 1µM LY2119620): 109.3% and 162.2% and 161.4% and 201.0%
- arrestin recruitment as % max effect of acetylcholin (iperoxo log [M] 3-9 + 10µM LY2119620): 130.3% and 161.0% and 169.5%
- arrestin recruitment as % max effect of acetylcholin (iperoxo log [M] 3-9 + 30µM LY2119620): 168.8% and 163.9%
- arrestin recruitment as % max effect of acetylcholin (iperoxo log [M] 3-10 + 0.1µM LY2119620): 82.7% and 92.1% and 124.5%
- arrestin recruitment as % max effect of acetylcholin (iperoxo log [M] 3-10 + 3µM LY2119620): 147.1% and 158.1% and 137.1% and 138.5%
- arrestin recruitment as % max effect of acetylcholin (iperoxo log [M] 3-10 + 10µM LY2119620): 103.3% and 152.4% and 152.5% and 133.9%
- arrestin recruitment as % max effect of acetylcholin (iperoxo log [M] 3-10 + 30µM LY2119620): 133.2% and 130.6% and 122.9%
- arrestin recruitment as % max effect of acetylcholin (iperoxo log [M] 3-10 + 100µM LY2119620): 127.5% and 129.1% and 112.5%
- arrestin recruitment as % max effect of acetylcholin (iperoxo log [M] -7 + 0.1µM LY2119620): 171.1% and 186.3% and 156.7% and 161.0%
- arrestin recruitment as % max effect of acetylcholin (iperoxo log [M] -7 + 1µM LY2119620): 129.3% and 176.9% and 172.6%
- arrestin recruitment as % max effect of acetylcholin (iperoxo log [M] -7 + 3µM LY2119620): 210.7% and 168.6% and 182.6% and 172.8%
- arrestin recruitment as % max effect of acetylcholin (iperoxo log [M] -7 + 10µM LY2119620): 131.2% and 159.6% and 162.7% and 198.6%
- arrestin recruitment as % max effect of acetylcholin (iperoxo log [M] -7 + 30µM LY2119620): 161.3% and 181.0% and 168.2%
- arrestin recruitment as % max effect of acetylcholin (iperoxo log [M] -7 + 100µM LY2119620): 157.1% and 172.7% and 165.6%
- arrestin recruitment as % max effect of acetylcholin (iperoxo log [M] -8 + 0.1µM LY2119620): 168.3% and 154.3% and 173.5%
- arrestin recruitment as % max effect of acetylcholin (iperoxo log [M] -8 + 1µM LY2119620): 124.1% and 172.3% and 160.8% and 152.0%
- arrestin recruitment as % max effect of acetylcholin (iperoxo log [M] -8 + 3µM LY2119620): 158.0% and 166.2% and 162.4%
- arrestin recruitment as % max effect of acetylcholin (iperoxo log [M] -8 + 10µM LY2119620): 139.2% and 163.1% and 168.9% and 181.1%
- arrestin recruitment as % max effect of acetylcholin (iperoxo log [M] -8 + 30µM LY2119620): 176.5% and 174.9% and 157.1%
- arrestin recruitment as % max effect of acetylcholin (iperoxo log [M] -8 + 100µM LY2119620): 165.6% and 153.6% and 149.1%
- arrestin recruitment as % max effect of acetylcholin (iperoxo log [M] -9 + 0.1µM LY2119620): 127.2% and 148.3% and 150.9% and 143.2%
- arrestin recruitment as % max effect of acetylcholin (iperoxo log [M] -9 + 3µM LY2119620): 137.5% and 153.6% and 172.9% and 151.5%
- arrestin recruitment as % max effect of acetylcholin (iperoxo log [M] -9 + 10µM LY2119620): 118.8% and 155.2% and 169.6% and 149.0%
- arrestin recruitment as % max effect of acetylcholin (iperoxo log [M] -9 + 30µM LY2119620): 161.0% and 151.6% and 144.8% and 137.0%
- arrestin recruitment as % max effect of acetylcholin (iperoxo log [M] -9 + 100µM LY2119620): 158.6% and 154.0% and 158.3% and 124.7%
- arrestin recruitment as % max effect of acetylcholin (iperoxo log [M] -10 + 10µM LY2119620): 79.6% and 137.1%
- arrestin recruitment as % max effect of acetylcholin (iperoxo log [M] -10 + 30µM LY2119620): 112.5% and 108.5% and 109.4%
- arrestin recruitment as % max effect of acetylcholin (iperoxo log [M] -10 + 100µM LY2119620): 85.8% and 82.4% and 75.4%
